Results published in EPA's ToxRefDB 2.

Assays:
mouse [1] = settings: Subchronic oral toxicity in rodents, b6c3f1, Feed, dose end: 13 week
mouse [2] = settings: Fertility (Segment I); cd1; Oral; Gavage/Intubation; dose end: 1 generation; group: parental; systemic / pathology gross / sperm measure / sperm morphology
rat [3] = settings: Subchronic oral toxicity in rodents, fischer, Feed, dose end: 13 week
rabbit [4] = settings: Sub-acute dermal toxicity, new zealand white, Topical, dose end: 21 day, group: systemic
rat [5] = settings: Prenatal developmental toxicity study, sprague dawley, Oral, Gavage/Intubation, dose end: 15 GD
rat [6] = settings: Prenatal developmental toxicity study, wistar, Oral, Gavage/Intubation, dose end: 17 GD
guinea-pig = settings: Subchronic dermal toxicity, hartley, Topical, dose end: 13 week, group: systemic
rat [7] = settings: Prenatal developmental toxicity study, sprague dawley, Oral, Gavage/Intubation, dose end: 16 GD
rabbit [8] = settings: Prenatal developmental toxicity study, new zealand white, Dermal, Topical, dose end: 18 GD
rat [9] = settings: Prenatal developmental toxicity study, sprague dawley, Oral, Gavage/Intubation, dose end: 16 GD; remark: listed apart in the source
[10] = group: maternal, reproductive / reproductive performance / estrous cycle / length
[11] = group: systemic, systemic / in life observation / body weight / body weight + systemic / in life observation / clinical signs / drooping eyelids (ptosis) + …
[12] = group: systemic, systemic / clinical chemistry / alkaline phosphatase (alp/alk) / alkaline phosphatase (alp/alk) + systemic / clinical chemistry / bile acids…
[13] = systemic / clinical chemistry / glucose / glucose
[14] = systemic / in life observation / clinical signs / desquamation + systemic / in life observation / clinical signs / erythema + systemic / in …
[15] = group: developmental, developmental / developmental malformation / bone / short supernumerary + developmental / developmental malformation / eye / anophthalmia + …
[16] = group: maternal, systemic / in life observation / body weight / body weight gain + systemic / in life observation / food consumption / food consumption
[17] = group: maternal, systemic / in life observation / body weight / body weight gain + systemic / in life observation / food consumption / food consumption + …
[18] = group: developmental, systemic / in life observation / body weight / offspring (pup) weight gain + developmental / developmental malformation / aortic arch / …
[19] = group: maternal, reproductive / offspring survival early / live fetuses / live fetuses + reproductive / offspring survival early / litter size / litter size…
[20] = systemic / clinical chemistry / lactic acid dehydrogenase (ldh) / lactic acid dehydrogenase (ldh) + systemic / hematology / mean corpuscular…
[21] = systemic / pathology microscopic / liver / fatty change + systemic / pathology microscopic / liver / necrosis + systemic / urinalysis / …
[22] = group: developmental, developmental / developmental malformation / aortic arch / [other] + developmental / developmental malformation / aortic arch / malformation…
[23] = group: developmental, developmental / developmental malformation / bone / ossification sites + developmental / developmental malformation / bone / supernumerary…
[24] = group: maternal, reproductive / reproductive performance / resorptions / resorptions + reproductive / offspring survival early / litter size / litter size
[25] = group: developmental, developmental / developmental malformation / bone / delayed ossification + developmental / developmental malformation / bone / knobby + …
[26] = group: maternal, reproductive / reproductive performance / resorptions / resorptions + systemic / hematology / erythrocyte (rbc) count differential / …
[27] = group: developmental, developmental / developmental malformation / bone / misaligned + developmental / developmental malformation / bone / ossification sites + …
[28] = group: maternal, reproductive / reproductive performance / resorptions / resorptions + systemic / in life observation / body weight / body weight + systemic…

**Q.** How did the LEL (mouse [1]; [10]) turn out when `NC(=Nc1ccccc1)Nc1ccccc1` [1,3-Diphenylguanidine] was run?
**A.** Its LEL is 577 mg/kg/day.

**Q.** And the LOAEL (mouse [1]; [10])?
**A.** Its LOAEL is > 577 mg/kg/day.

**Q.** What about the NEL (mouse [1]; [10]) of the same compound?
**A.** Its NEL is 285 mg/kg/day.

**Q.** What about the NOAEL (mouse [1]; [10]) of the same compound?
**A.** The NOAEL was ≥ 577 mg/kg/day.

**Q.** And the LOAEL (mouse [1]; group: systemic, systemic / in life observation / body weight / body weight + systemic / in life observation / clinical signs / drooping eyelids (ptosis))?
**A.** Its LOAEL is 231 mg/kg/day.

**Q.** What about the NEL (mouse [1]; [11]) of the same compound?
**A.** The NEL was 38 mg/kg/day.

**Q.** What about the NOAEL (mouse [1]; [11]) of the same compound?
**A.** The NOAEL was 114 mg/kg/day.

**Q.** What about the LEL (mouse [1]; group: systemic, systemic / organ weight / liver / relative to body weight) of the same compound?
**A.** Its LEL is 75 mg/kg/day.

**Q.** And the LEL (mouse [2])?
**A.** The LEL was 16 mg/kg/day.

**Q.** And the LOAEL (mouse [2])?
**A.** Its LOAEL is > 16 mg/kg/day.

**Q.** And the NEL (mouse [2])?
**A.** Its NEL is 4 mg/kg/day.

**Q.** And the NOAEL (mouse [2])?
**A.** Its NOAEL is ≥ 16 mg/kg/day.

**Q.** And the LEL (rat [3]; [10])?
**A.** Its LEL is 49 mg/kg/day.

**Q.** What about the LOAEL (rat [3]; [10]) of the same compound?
**A.** The LOAEL was > 184 mg/kg/day.

**Q.** What about the NEL (rat [3]; [10]) of the same compound?
**A.** Its NEL is 32 mg/kg/day.

**Q.** What about the NOAEL (rat [3]; [10]) of the same compound?
**A.** The NOAEL was ≥ 184 mg/kg/day.

**Q.** And the LEL (rat [3]; [12])?
**A.** The LEL was 17 mg/kg/day.

**Q.** What about the LOAEL (rat [3]; [12]) of the same compound?
**A.** The LOAEL was 95 mg/kg/day.

**Q.** What about the NEL (rat [3]; [12]) of the same compound?
**A.** The NEL was < 17 mg/kg/day.

**Q.** What about the NOAEL (rat [3]; [12]) of the same compound?
**A.** The NOAEL was 49 mg/kg/day.

**Q.** For `O=S(=O)(C(Cl)(Cl)Cl)C(Cl)(Cl)Cl` [Bis(trichloromethyl)sulfone], which LEL (rabbit [4]; [13]) is on record?
**A.** The LEL was 0.8 mg/kg/day.

**Q.** And the NEL (rabbit [4]; [13])?
**A.** The NEL was < 0.8 mg/kg/day.

**Q.** And the LOAEL (rabbit [4]; [14])?
**A.** The LOAEL was 5 mg/kg/day.

**Q.** What about the NOAEL (rabbit [4]; [14]) of the same compound?
**A.** Its NOAEL is 2 mg/kg/day.

**Q.** What about the LEL (rat [5]; [15]) of the same compound?
**A.** Its LEL is 50 mg/kg/day.

**Q.** What about the LOAEL (rat [5]; [15]) of the same compound?
**A.** Its LOAEL is 50 mg/kg/day.

**Q.** And the NEL (rat [5]; [15])?
**A.** Its NEL is 10 mg/kg/day.

**Q.** What about the NOAEL (rat [5]; [15]) of the same compound?
**A.** The NOAEL was 10 mg/kg/day.

**Q.** And the LEL (rat [5]; [16])?
**A.** The LEL was 10 mg/kg/day.

**Q.** What about the LOAEL (rat [5]; [16]) of the same compound?
**A.** The LOAEL was 10 mg/kg/day.

**Q.** And the NEL (rat [5]; [17])?
**A.** Its NEL is 2 mg/kg/day.

**Q.** What about the NOAEL (rat [5]; [17]) of the same compound?
**A.** The NOAEL was 2 mg/kg/day.

**Q.** For `COCCOCCO` [Diethylene glycol monomethyl ether], which NEL (rat [6]; group: developmental, systemic / in life observation / body weight / offspring (pup) weight gain) is on record?
**A.** Its NEL is 200 mg/kg/day.

**Q.** And the LOAEL (rat [6]; [18])?
**A.** Its LOAEL is > 1800 mg/kg/day.

**Q.** And the NOAEL (rat [6]; [18])?
**A.** Its NOAEL is ≥ 1800 mg/kg/day.

**Q.** What about the LEL (rat [6]; group: developmental, systemic / in life observation / body weight / offspring (pup) weight gain + developmental / developmental malformation / bone / …) of the same compound?
**A.** The LEL was 600 mg/kg/day.

**Q.** What about the LEL (rat [6]; group: maternal, reproductive / offspring survival early / live fetuses / live fetuses) of the same compound?
**A.** The LEL was 600 mg/kg/day.

**Q.** And the NEL (rat [6]; group: maternal, reproductive / offspring survival early / live fetuses / live fetuses + reproductive / offspring survival early / litter size / litter size)?
**A.** Its NEL is 200 mg/kg/day.

**Q.** And the LOAEL (rat [6]; [19])?
**A.** Its LOAEL is > 1800 mg/kg/day.

**Q.** And the NOAEL (rat [6]; [19])?
**A.** Its NOAEL is ≥ 1800 mg/kg/day.

**Q.** And the LOAEL (guinea-pig; [20])?
**A.** Its LOAEL is > 1000 mg/kg/day.

**Q.** What about the NOAEL (guinea-pig; [20]) of the same compound?
**A.** Its NOAEL is ≥ 1000 mg/kg/day.

**Q.** And the LEL (guinea-pig; [21])?
**A.** Its LEL is 40 mg/kg/day.

**Q.** And the NEL (guinea-pig; [21])?
**A.** The NEL was < 40 mg/kg/day.

**Q.** What about the LOAEL (rat [7]; [22]) of the same compound?
**A.** Its LOAEL is > 2160 mg/kg/day.

**Q.** What about the NOAEL (rat [7]; [22]) of the same compound?
**A.** The NOAEL was ≥ 2160 mg/kg/day.

**Q.** And the LEL (rat [7]; [23])?
**A.** The LEL was 720 mg/kg/day.

**Q.** And the NEL (rat [7]; [23])?
**A.** Its NEL is < 720 mg/kg/day.

**Q.** And the NEL (rat [7]; group: maternal, reproductive / reproductive performance / resorptions / resorptions)?
**A.** The NEL was 720 mg/kg/day.

**Q.** What about the LEL (rat [7]; [24]) of the same compound?
**A.** Its LEL is 2160 mg/kg/day.

**Q.** What about the LOAEL (rat [7]; [24]) of the same compound?
**A.** The LOAEL was > 2160 mg/kg/day.

**Q.** What about the NOAEL (rat [7]; [24]) of the same compound?
**A.** The NOAEL was ≥ 2160 mg/kg/day.

**Q.** What about the LEL (rabbit [8]; [25]) of the same compound?
**A.** The LEL was 250 mg/kg/day.

**Q.** What about the LOAEL (rabbit [8]; [25]) of the same compound?
**A.** Its LOAEL is > 750 mg/kg/day.

**Q.** And the NEL (rabbit [8]; [25])?
**A.** Its NEL is 50 mg/kg/day.

**Q.** And the NOAEL (rabbit [8]; [25])?
**A.** The NOAEL was ≥ 750 mg/kg/day.

**Q.** And the LEL (rabbit [8]; [26])?
**A.** The LEL was 750 mg/kg/day.

**Q.** And the LOAEL (rabbit [8]; [26])?
**A.** Its LOAEL is > 750 mg/kg/day.

**Q.** And the NEL (rabbit [8]; [26])?
**A.** Its NEL is 250 mg/kg/day.

**Q.** And the NOAEL (rabbit [8]; [26])?
**A.** The NOAEL was ≥ 750 mg/kg/day.

**Q.** And the LOAEL (rat [9]; [27])?
**A.** The LOAEL was > 5180 mg/kg/day.

**Q.** And the NEL (rat [9]; [27])?
**A.** Its NEL is 1000 mg/kg/day.

**Q.** What about the NOAEL (rat [9]; [27]) of the same compound?
**A.** The NOAEL was ≥ 5180 mg/kg/day.

**Q.** And the LEL (rat [9]; group: developmental, developmental / developmental malformation / bone / ossification sites)?
**A.** The LEL was 1500 mg/kg/day.

**Q.** What about the LOAEL (rat [9]; [28]) of the same compound?
**A.** Its LOAEL is > 5180 mg/kg/day.

**Q.** And the NEL (rat [9]; [28])?
**A.** The NEL was 2240 mg/kg/day.

**Q.** And the NOAEL (rat [9]; [28])?
**A.** The NOAEL was ≥ 5180 mg/kg/day.

**Q.** What about the LEL (rat [9]; group: maternal, systemic / in life observation / body weight / body weight + systemic / in life observation / food consumption / food consumption + …) of the same compound?
**A.** The LEL was 3340 mg/kg/day.
